Experiment: mn = molality of the nth substance listed, in mol/kg
Settings: 100 kPa, Liquid; for viscosity: Capillary tube (Ostwald / Ubbelohde) method; for mass density: Pycnometric method

NCCCNCCCN [bis(3-aminopropyl)amine] + O
Settings	mass density [kg/m3]	viscosity [mPa·s]
298 K, m1 = 0.102	997.56	0.95
298 K, m1 = 0.313	997.47	1.07
298 K, m1 = 0.537	997.32	1.23
298 K, m1 = 0.773	997.12	1.41
298 K, m1 = 1.024	996.9	1.57
298 K, m1 = 1.291	996.71	1.74
303 K, m1 = 0.102	996.21	0.84
303 K, m1 = 0.313	996.12	0.95
303 K, m1 = 0.537	995.98	1.09
303 K, m1 = 0.773	995.83	1.24
303 K, m1 = 1.024	995.67	1.39
303 K, m1 = 1.291	995.53	1.55
308 K, m1 = 0.102	994.48	0.76
308 K, m1 = 0.313	994.37	0.85
308 K, m1 = 0.537	994.17	0.98
308 K, m1 = 0.773	994	1.1
308 K, m1 = 1.024	993.82	1.24
308 K, m1 = 1.291	993.64	1.38
313 K, m1 = 0.102	992.55	0.69
313 K, m1 = 0.313	992.43	0.77
313 K, m1 = 0.537	992.27	0.88
313 K, m1 = 0.773	992.1	0.99
313 K, m1 = 1.024	991.92	1.11
313 K, m1 = 1.291	991.73	1.23
318 K, m1 = 0.102	990.18	0.61
318 K, m1 = 0.313	989.94	0.69
318 K, m1 = 0.537	989.71	0.8
318 K, m1 = 0.773	989.48	0.9
318 K, m1 = 1.024	989.3	1
318 K, m1 = 1.291	989.09	1.11
323 K, m1 = 0.102	987.58	0.55
323 K, m1 = 0.313	987.36	0.63
323 K, m1 = 0.537	987.13	0.73
323 K, m1 = 0.773	986.93	0.81
323 K, m1 = 1.024	986.74	0.9
323 K, m1 = 1.291	986.55	0.98

Source: the NIST ThermoML archive (doi:10.1021/acs.jced.5b00922)
